# Laboratory results reported in patent US11541104B2, “Method for preventing or treating osteoporosis, characterized by administering teriparatide or salt thereof at a frequency of twice a week” (ASAHI KASEI PHARMA CORPORATION, priority 2018, dated 2023).
# Tests used:
# Format in all cases: in vivo, rabbit
# [1] = tested on: six-month old female rabbits; experiment: Bone mineral densities of tibiae of rabbits (Working Example 2); conditions: 4 weeks; for Bone mineral densities in proximal part (1/5 site) of the tibiae: 140 μg/kg per week; for Bone mineral densities in the proximal part (1/5 site) of the tibiae: weekly dosage 140 μg/kg
# Description: (§1) To evaluate the influences of the administration frequencies of teriparatide on the bone metabolism and the bone tissue morphology, six-month old female rabbits were subcutaneously administered with an agent in a manner that a weekly dosage of teriparatide was adjusted to 140 μg/kg at a frequency of once a week, twice a week or seven times a week over 4 weeks, or with a control drug without containing teriparatide at a frequency of seven times a week over 4 weeks (Table 2-54). Also, the bone mineral density and the bone strength of the tibiae were measured. The teriparatide solution which was administered was appropriately prepared by dissolving teriparatide acetate in a water for injection, filtering the solution, filling the filtrate in a vial, freeze-drying to give a preparation, and dissolving the preparation in a physiological saline upon use.
# The bone mineral densities of the tibiae were analyzed in divided regions.
# [2] = tested on: six-month old female rabbits; experiment: Bone strength of tibiae of rabbits, three-point bending strength; conditions: for Maximum load, bone strength of tibiae: 140 μg/kg per week, subcutaneous, 4 weeks; for Maximum load, three-point bending strength of the tibiae: versus control group
# Description: as §1
# Three-point bending strength of the tibiae collected after the end of the administration period was measured.
# [3] = tested on: six-month old female rabbits; experiment: Bone tissue morphology of diaphysis of tibiae of rabbits
# Description: as §1
# [4] = group administered twice a week
# [5] = group administered seven times a week
smiles,measurement,setting,value
CC[C@H](C)[C@H](NC(=O)[C@H](CCC(=O)O)NC(=O)[C@H](CO)NC(=O)[C@@H](NC(=O)[C@@H](N)CO)C(C)C)C(=O)N[C@@H](CCC(N)=O)C(=O)N[C@@H](CC(C)C)C(=O)N[C@@H](CCSC)C(=O)N[C@@H](Cc1cnc[nH]1)C(=O)N[C@@H](CC(N)=O)C(=O)N[C@@H](CC(C)C)C(=O)NCC(=O)N[C@@H](CCCCN)C(=O)N[C@@H](Cc1cnc[nH]1)C(=O)N[C@@H](CC(C)C)C(=O)N[C@@H](CC(N)=O)C(=O)N[C@@H](CO)C(=O)N[C@@H](CCSC)C(=O)N[C@@H](CCC(=O)O)C(=O)N[C@@H](CCCN=C(N)N)C(=O)N[C@H](C(=O)N[C@@H](CCC(=O)O)C(=O)N[C@@H](Cc1c[nH]c2ccccc12)C(=O)N[C@@H](CC(C)C)C(=O)N[C@@H](CCCN=C(N)N)C(=O)N[C@@H](CCCCN)C(=O)N[C@@H](CCCCN)C(=O)N[C@@H](CC(C)C)C(=O)N[C@@H](CCC(N)=O)C(=O)N[C@@H](CC(=O)O)C(=O)N[C@H](C(=O)N[C@@H](Cc1cnc[nH]1)C(=O)N[C@@H](CC(N)=O)C(=O)N[C@@H](Cc1ccccc1)C(=O)O)C(C)C)C(C)C [teriparatide],Bone mineral densities in proximal part (1/5 site) of the tibiae,"[1]; Group administered once a week, subcutaneous",272.5 ± 13.6 mg/cm^2
same,Bone mineral densities in proximal part (1/5 site) of the tibiae,"[1]; Group administered twice a week, subcutaneous",278.8 ±9.8 mg/cm^2
same,Bone mineral densities in the proximal part (1/5 site) of the tibiae,[1]; [4],higher value than that of the group administered once a week
same,Bone mineral densities in the proximal part (1/5 site) of the tibiae,"[1]; subcutaneous, as compared to control group",remarkably increased
same,"Maximum load, bone strength of tibiae",[2]; Group administered once a week,583.81 N
same,"Maximum load, bone strength of tibiae",[2]; Group administered seven times a week,656.09 N
same,"Maximum load, bone strength of tibiae",[2]; Group administered twice a week,624.41 N
same,"Maximum load, three-point bending strength of the tibiae",[2]; [5],higher values
same,"Maximum load, three-point bending strength of the tibiae",[2]; [4],higher values
same,Bone tissue morphology of diaphysis of tibiae,[3]; group administered once a week,none of these findings were observed
same,Bone tissue morphology of diaphysis of tibiae,[3]; [5],"formation of trabecular bones on the endocortical surfaces, a large number of intracortical voids (increase of cortical porosity), and disorderedness in a lamellar structure were observed"
same,Bone tissue morphology of diaphysis of tibiae,[3]; [4],none of these findings were observed
